{"source": "patent US20050032904A1", "about": "“Composition and use of allylamine derivatives” (priority 2003, published 2005)", "key": {"human fibroblasts": {"tested_on": "human fibroblasts", "experiment": "Flow cytometry (FACS) cell cycle analysis", "type": "cell-based"}, "[1]": {"tested_on": "cdk4 kinase activity in HT 29 cells", "experiment": "Immunoprecipitation and kinase activity assay", "type": "cell-based, human", "details": "60 μM TB, 15 h; p53 His273 mutant", "protocol": "(§1) (Ko U, and […]. Genes & Development 1996; 10(9): 1054-72; Levine AJ., Cell 1997;88(3):323-31.). […] To further test this hypothesis, we examined the TB effects on the levels of p21/Cip1, p27/Kip1 and p53 protein, and the cdk4 kinase activity in three human cancer cell lines (COLO 205, HT 29 and Hep 3B). […] Antisense or sense p53 was added to COLO 205 at a final concentration of 20 μM at 16 h before the cell was challenged with 10% FCS and 60 μM TB treatment for additional 15 h. […] As previously described (Wu X, et. al., Oncogene 1996;12(7):1397-403.), the TB-treated cells were lysed in Rb lysis buffer, and immunoprecipitated with anti-cdk4 antibody (2 μg). The protein complexes in beads were washed twice with Rb lysis buffer and then once with Rb kinase assay buffer. The level of phosphorylated of Rb (for pRb), histone Hi (for cdk2) and glutathione s-transferase-Rb fusion protein (for cdk4) were measured by incubating the beads with 40 μl of hot Rb kinase solution [0.25 μl (2 μg) of Rb-GST fusion protein, 0.5 μl of (γ-^32P) ATP, 0.5 μl of 0.1 mM ATP and 38.75 μl of Rb kinase buffer] at 37° C. for 30 min, and then stopped by boiling the samples in SDS sample buffer for 5 min. The samples were analyzed by 12% SDS-PAGE, and the gel was then dried and subjected to autoradiography."}, "[2]": {"tested_on": "cdk4 kinase activity in COLO 205 cells", "experiment": "Immunoprecipitation and kinase activity assay", "type": "cell-based, human", "details": "60 μM TB, 15 h after release from quiescence; p53 wild type", "protocol": "as §1"}, "[3]": {"tested_on": "cdk4 kinase activity in Hep 3B cells", "experiment": "Immunoprecipitation and kinase activity assay", "type": "cell-based, human", "details": "60 μM TB, 15 h; p53 partial deletion", "protocol": "as §1"}, "[4]": {"tested_on": "cell cycle regulatory proteins in COLO 205 cells", "experiment": "Western blot of cell cycle regulatory proteins", "type": "cell-based, human", "protocol": "They were then returned to culture media supplemented with 10% FCS and 0.05% DMSO with or without TB (60 μM), and at various times thereafter, they were harvested for protein extraction and Western blot analysis. Based on the FACS analysis in the COLO 205 cells, 0, 15, 18 and 24 h after release from quiescence represents the G0/G1, S, G2/M and 2nd G0/G1 phase of the cell cycle, respectively. (FIG. 2A). Accordingly, these time points were selected for protein extraction and Western blot analysis to examine the effects of TB on the expression of cell cycle regulatory proteins. In FIG. 6, (A) In the DMSO-treated COLO 205, 10% FCS caused a transit increase in p21/Cip1 protein (upper panel). […] The COLO 205 cells were synchronized with 0.04% FCS for 24 h, and then released into complete medium (10% FCS) containing TB (60 μM) for the indicated time points. COLO 205 cells were also treated with DMSO (0.05%, v/v) as a control group. Protein extracts (100 μg/lane) were separated by SDS-PAGE, probed with specific antibodies, and detected using the NBT/BCIP system. […] (LaBaer J, et. al., Genes & Development 1997;11(7):847-62.).\nIn contrast, TB induced apoptosis in the HL 60 (p53 null) and Hep 3B (p53 partial deleted). […] To further test this hypothesis, the dose effects of TB on the levels of cell cycle regulatory protein were conducted in four different human cancer cell lines, COLO 205 (p53 wild type), HT 29 (p53 His^273 mutant), Hep 3B (p53 partial deleted) and HL 60 (p53 null). […] The cells were rendered quiescent for 24 h, and then challenged with 10% FCS and treated with various concentrations of TB (60-150 μM) for additional 15 h. Protein extracts (100 μg/lane) were separated by SDS-PAGE, probed with specific antibodies, and detected using the NBT/BCIP system. Membranes were also probed with anti-GAPDH antibody to correct for differences in protein loading.\nAs previously described (Chen R J, et. al., Toxicology & Applied Pharmacology 2000;169(2):132-41.), the frozen tumor was pulverized in liquid N2, and then mixed with lysis buffer (Tris-HCl 0.5 M, pH 6.8, SDS 0.4%). For cell cultures, the cells were seeded onto 150-mm dishes and grown in RPMI 1640 (for COLO 205, HT 29 and HL 60 cells) or MEM (for Hep 3B) supplemented with 10% FCS. After the cells had grown to subconfluence, they were rendered quiescent. The cells were released from quiescence with culture medium supplemented with 10% FCS. TB in 0.05% DMSO or 0.05% DMSO without TB was added to the cells at various concentrations and the mixture was allowed to incubate for 17 h. Western blot analysis was performed as previously described (Chen R J, et. al., Toxicology & Applied Pharmacology 2000;169(2):132-41; Lee W S, et. al., Circulation Research 1998;82(8):845-51.). Immunodetection was carried by probing with proper dilutions of specific antibodies at room temperature for 2 h. Anti-p21/Cip1, anti-p27/Kip1, anti-p53, anti-GAPDH monoclonal antibodies (Santa Cruz, Inc. CA); anti-cyclin B1, D1, and D3, anti-cdk2 and cdk4, and PCNA monclonal antibodies (Transduction Laboratories, Lexington, Ky.) were used at a concentration of 1:1,000 dilution. Anti-cyclin A and E polyclonal antibodies (Transduction, San Diego, Calif.) were used at a concentration of 1:250 dilution. The secondary antibodies, alkaline phosphatase-coupled anti-mouse or anti-rabbit antibody (Jackson, Westgrove Pa.), was incubated at room temperature for 1 h at a concentration of 1:5,000 or 1:1,000 dilution, respectively. The specific protein complexes were identified by incubating with the colorigenic substrates (nitro blue tetrazolium, NBT, and 5-bromo-4-chloro-3-indolyl-phosphate, BCIP; Sigma Chemical Co., St. Louis, Mo.). In each experiment, membranes were also probed with anti-GAPDH antibody to correct for differences in protein loading."}, "[5]": {"details": "TB 60-150 μM, 15 h, dose-dependent"}}}
{"smiles": "CN(C/C=C/C#CC(C)(C)C)Cc1cccc2ccccc12", "note": "[TB, 1-Naphthalenemethanamine, N-(6,6-dimethyl-2-hepten-4-ynyl)-N-methyl-, (E)-]", "values": [{"measurement": "cytotoxicity for untransformed human fibroblasts", "setting": "human fibroblasts; TB 10-150 μM", "value": "not cytotoxic"}, {"measurement": "cell cycle arrest or cell death", "setting": "human fibroblasts; TB treatment for 15 h", "value": "did not induce cell cycle arrest or cell death"}, {"measurement": "assayable cdk4 kinase activity", "setting": "[1]", "value": "slight decrease"}, {"measurement": "assayable cdk4 kinase activity", "setting": "[2]", "value": "strong decrease"}, {"measurement": "assayable cdk4 kinase activity", "setting": "[3]", "value": "slight decrease"}, {"measurement": "p53 and p21 electrophoretogram bands", "setting": "[4]; 60 μM TB alone, 15 h", "value": "increased in intensity"}, {"measurement": "p21/Cip1 protein level, time effect", "setting": "[4]; TB 60 μM after release from quiescence", "value": "persistent increase"}, {"measurement": "p27/Kip1 protein levels, time effect", "setting": "[4]; TB 60 μM, 0-24 h after 10% FCS", "value": "maintained at high levels"}, {"measurement": "Cyclin A2 and cyclin B levels", "setting": "[4]; TB 60 μM, time course", "value": "also downregulated"}, {"measurement": "level of pRB protein (phosphorylated Rb)", "setting": "[4]; TB 60 μM, time course", "value": "downregulated"}, {"measurement": "levels of cyclin D1 and PCNA protein", "setting": "[4]; TB 60 μM, time course", "value": "not changed"}, {"measurement": "levels of cyclin D3, cdk2 and cdk4 protein", "setting": "[4]; TB 60 μM, time course", "value": "downregulated"}, {"measurement": "levels of cyclin E protein", "setting": "[4]; TB 60 μM, time course", "value": "slightly elevated"}, {"measurement": "levels of cyclin D3 and cdk4, dose effect", "setting": "[4]; [5]", "value": "decreased"}, {"measurement": "levels of p53, p21/Cip1 and p27/Kip1 protein, dose effect", "setting": "[4]; [5]", "value": "increased"}]}
